# From patent publication US20110288134A1, “COMPOSITION AND METHOD FOR TREATING FIBROSIS” (Pacific Therapeutics Ltd., priority 2008, published 2011)
# Where two headings read alike, the source gives them in different places.
# Tests used:
# [1] = test system: TGF-β1 induced ECM accumulation in HFL1 human lung fibroblast cells; test: TGF-β1 induced monolayer extracellular matrix (ECM) accumulation assay (Sirius Red collagen) in fibronectin-coated plates; assay type: cell-based; conditions: for inhibition at 300 µM: compound alone at 300 μM (FIG. 1)
# Source text: The composition comprising tranilast and NAC or composition containing pirfenidone and NAC was investigated for their antifibrotic activity by employing in vitro collagen synthesis assay: the TGF-β1 induced monolayer extracellular matrix (ECM) accumulation assay in fibronectin-coated plates.
# Method Human lung fibroblast cell line, HFL1, was purchased from American Type Culture Collection. Cells were maintained in FK12 medium supplemented with 10% FBS and antibiotics. Cells were trypsinized and seeded into 96-well fibronectin-coated plate as 5×10^4cells/well and cultured overnight to achieve 60-80% confluence. After a washing with PBS and serum-free medium, fresh medium supplemented with 40 pM of TGF-β1 was added in each test well. Different concentrations of tranilast, pirfenidone, NAC and their combinations were also added to some test wells. The plates were left at 37° C. in a CO2 incubator for 72 h. After removing medium cells were fixed to the plate with 0.5% glutaraldehyde for 30 minutes at room temperature. Cells were washed and treated with 0.5M acetic acid for 30 minutes. After washing cells with distilled water 250 µl of Sirius Red was added for 2 hours. Dye was removed and cells were washed with distilled water. Sirius Red was eluted with 200 ul 0.1 N sodium hydroxide, and the optical density at 540 nm was determined using a Molecular Dynamics spectrophotometer.
# [2] = cited from earlier work
# [3] = doses of up to 600 mg/day for at least 3 months, many years of clinical use; cited from earlier work
# [4] = HFL1 cells, 40 pM TGF-β1, 72 h, compound alone at 10 μM (FIG. 1)
# [5] = Homo sapiens, HFL1 cells, 40 pM TGF-β1, 72 h, read-out: inhibition of TGF-β1 mediated ECM (collagen) accumulation
# [6] = combination screen plate (FIG. 2A/3A), HFL1 cells, compound alone at 300 μM
structure (smiles),measurement,setting,value
"CC(=O)N[C@@H](CS)C(=O)O [NAC, N-acetyl-cysteine]",inhibition of TGF-β1 mediated ECM accumulation,"[1]; HFL1 cells, 40 pM TGF-β1, 72 h, alone at 0.1 mM (FIG. 1C)",not effective
same,inhibition of TGF-β1 mediated ECM accumulation,"[1]; HFL1 cells, 40 pM TGF-β1, 72 h, alone at 0.5 mM (FIG. 1C)",not effective
same,inhibition of TGF-β1 mediated ECM accumulation,"[1]; HFL1 cells, 40 pM TGF-β1, 72 h, alone at 1 mM (FIG. 1C)",not effective
same,suppression of TGF-β1 mediated ECM accumulation,"[1]; HFL1 cells, 40 pM TGF-β1, 72 h, alone at 2 mM (FIG. 1C)",32±14%
same,suppression of TGF-β1 mediated ECM accumulation,"[1]; HFL1 cells, 40 pM TGF-β1, 72 h, alone at 5 mM (FIG. 1C)",45±17%
same,suppression of TGF-β1 mediated ECM accumulation,"[1]; HFL1 cells, 40 pM TGF-β1, 72 h, alone at 10 mM (FIG. 1C)",70.5±18%
same,inhibition at 20000 µM,"[1]; Homo sapiens, HFL1 cells, 40 pM TGF-β1, 72 h, alone at 20 mM (FIG. 1C), read-out: inhibition of TGF-β1 mediated ECM accumulation",100%
same,suppression of TGF-β1 mediated collagen accumulation,"[1]; screen plate FIG. 2A, compound alone at 2 mM",25%
"Cc1ccc(=O)n(-c2ccccc2)c1 [pirfenidone, 5-methyl-L-phenyl-2-(1H)-pyridone]",plasma concentration,"[2]; usual therapeutic dose of 1200 mg/day (Shi, Wu et al. 2007)",100 to 1000 µM
same,inhibition of TGF-β1 mediated ECM (collagen) accumulation,[1]; [4],not effective
same,inhibition of TGF-β1 mediated ECM (collagen) accumulation,"[1]; HFL1 cells, 40 pM TGF-β1, 72 h, compound alone at 100 μM (FIG. 1)",not effective
same,inhibition at 1000 µM,"[1]; Homo sapiens, HFL1, screen plate FIG. 3A, compound alone at 1000 μM, read-out: anti-fibrosis activity (inhibition of TGF-β1 induced collagen accumulation)",100%
same,inhibition at 300 µM,[1]; [5],22 ± 7%
same,inhibition at 500 µM,"[1]; Homo sapiens, HFL1 cells, 40 pM TGF-β1, 72 h, compound alone at 500 μM (FIG. 1), read-out: inhibition of TGF-β1 mediated ECM (collagen) accumulation",33 ± 8%
same,inhibition at 1000 µM,"[1]; Homo sapiens, HFL1 cells, 40 pM TGF-β1, 72 h, compound alone at 1000 μM (FIG. 1), read-out: inhibition of TGF-β1 mediated ECM (collagen) accumulation",~100%
same,suppression of TGF-β1 mediated collagen accumulation,[1]; [6],18%
"COc1ccc(/C=C/C(=O)Nc2ccccc2C(=O)O)cc1OC [tranilast, n-[3,4-dimethoxycinnamoyl] anthranilic acid]",plasma concentration,[2]; after oral administration of the usual therapeutic dose of 600 mg/day (Kusama et al. 1999),30 to 300 µM
same,shift in the potency of tranilast,[1]; 50 μM tranilast with 2 mM NAC (88%) versus tranilast alone (11%),8 fold
same,inhibition of TGF-β1 mediated ECM (collagen) accumulation,[1]; [4],no significant inhibition
same,inhibition of TGF-β1 mediated ECM (collagen) accumulation,"[1]; HFL1 cells, 40 pM TGF-β1, 72 h, compound alone at 25 μM (FIG. 1)",no significant inhibition
same,inhibition of TGF-β1 mediated ECM (collagen) accumulation,"[1]; HFL1 cells, 40 pM TGF-β1, 72 h, compound alone at 50 μM (FIG. 1)",no significant inhibition
same,inhibition at 100 µM,"[1]; Homo sapiens, HFL1 cells, 40 pM TGF-β1, 72 h, compound alone at 100 μM (FIG. 1), read-out: inhibition of TGF-β1 mediated ECM (collagen) accumulation",34 ± 11%
same,inhibition at 300 µM,[1]; [5],100%
same,suppression of TGF-β1 mediated collagen accumulation,[1]; [6],100%
same,suppression of TGF-β1 mediated collagen accumulation,"[1]; screen plate FIG. 2A, compound alone at 50 μM",11%
same,clinical safety and tolerability,[3],safe and well tolerated
